Measured values published in the supplement of paper PMC10307832.

Columns and labels:
Assay in all cases: relative viability (nuclei count vs DMSO), 5 days (fraction); higher = more cells survive
[1] = compound: CCn1c(-c2nonc2N)nc2c(C#CC(C)(C)O)ncc(OC[C@H]3CCCNC3)c21 + COc1cc2c(Oc3ccc(NC(=O)C4(C(=O)Nc5ccc(F)cc5)CC4)cc3F)ccnc2cc1OCCCN1CCOCC1 [Foretinib] (partner 0.25 µM)
How it was run: (§1)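 Each reported value is a median over duplicate plates. It expresses relative viability: treated-well nuclei count divided by vehicle-well nuclei count. Lung cancer cell lines in 1536-well plates were dosed by pin tool a day after seeding, alone with one drug or with a fixed anchor-drug dose plus five library-drug doses (not always all listed) in √10 steps, and nuclei were counted after 5 days.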

BAM7 + Dasatinib = compound: CCOC1=CC=CC=C1N=NC2=C(NN(C2=O)C3=NC(=CS3)C4=CC=CC=C4)C [BAM7] + Cc1nc(Nc2ncc(C(=O)Nc3c(C)cccc3Cl)s2)cc(N2CCN(CCO)CC2)n1 [Dasatinib] (partner 0.075 µM)
How it was run: as §1

BAM7 + Bortezomib = compound: CCOC1=CC=CC=C1N=NC2=C(NN(C2=O)C3=NC(=CS3)C4=CC=CC=C4)C [BAM7] + CC(C)C[C@H](NC(=O)[C@H](Cc1ccccc1)NC(=O)c1cnccn1)B(O)O [Bortezomib] (partner 0.002 µM)
How it was run: as §1

[2] = compound: CCn1c(-c2nonc2N)nc2c(C#CC(C)(C)O)ncc(OC[C@H]3CCCNC3)c21 + CC(=O)Nc1cccc(-n2c(=O)n(C3CC3)c(=O)c3c(Nc4ccc(I)cc4F)n(C)c(=O)c(C)c32)c1 [Trametinib] (partner 0.02 µM)
How it was run: as §1

Cell Line	relative viability ([1]; first compound 0.01 µM)	relative viability ([1]; first compound 0.03162 µM)	relative viability ([1]; first compound 0.1 µM)	relative viability ([1]; first compound 0.3162 µM)	relative viability ([1]; first compound 1 µM)	relative viability (BAM7 + Dasatinib; first compound 0.5 µM)	relative viability (BAM7 + Dasatinib; first compound 5 µM)	relative viability (BAM7 + Dasatinib; first compound 15.81 µM)	relative viability (BAM7 + Dasatinib; first compound 50 µM)	relative viability (BAM7 + Bortezomib; first compound 0.5 µM)	relative viability (BAM7 + Bortezomib; first compound 5 µM)	relative viability (BAM7 + Bortezomib; first compound 15.81 µM)	relative viability (BAM7 + Bortezomib; first compound 50 µM)	relative viability ([2]; first compound 0.01 µM)	relative viability ([2]; first compound 0.03162 µM)	relative viability ([2]; first compound 0.1 µM)	relative viability ([2]; first compound 0.3162 µM)	relative viability ([2]; first compound 1 µM)
HARA	0.848	1.01	0.864	0.833	0.876	0.293	0.403	0.291	0.328	1.14	1.26	1.09	1.14	0.542	0.852	0.947	0.652	0.611
NCI-H838	0.969	1.08	0.988	1.02	1.07	0.36	0.297	0.295	0.335	0.771	0.961	0.631	1.1	0.534	0.556	0.5	0.453	0.494
NCI-H1755	0.993	0.933	0.899	0.841	0.95	0.432	0.466	0.419	0.458	1.02	1.01	0.949	0.95	0.855	0.808	0.801	0.769	0.801
HCC-78	0.515	0.523	0.539	0.532	0.527	0.502	0.276	0.424	0.306	0.586	0.63	0.419	0.608	0.639	0.709	0.703	0.69	0.652
IA-LM	0.955	1.02	1.09	0.946	0.923					0.789	0.98	0.756	0.777					
NCI-H322M	0.823	0.881	0.879	0.816	0.911	0.271	0.287	0.287	0.281	1.2	1.2	1.05	1.02	0.546	0.508	0.505	0.433	0.511
NCI-H1793	0.733	0.614	0.632	0.55	0.554	0.375	0.424	0.431	0.388					0.388	0.393		0.401	0.436
NCI-H1792						0.827	0.833	0.665	0.822	1.09	1.06	0.97	0.957	0.472	0.424	0.504	0.344	0.387
NCI-H522						0.872	0.976	0.828	0.827					0.826	0.763	0.783	0.667	0.82
NCI-H1299	1.09	1.08	1.06	0.717	1.16					1.02	1.04	1.03	0.963					
NCI-H1648														0.46	0.474	0.481	0.417	0.418
SK-MES-1	0.908	0.876	1.02	0.819	0.828	0.366	0.289	0.3	0.336					0.61	0.52	0.569	0.465	0.503
NCI-H2342	1.1	1.19	1.04	1.07	1.09	0.286	0.343	0.352	0.316					0.845	0.848	0.87	0.941	0.957
SW 900	0.92	0.887	0.875	0.798	0.768	0.358	0.398	0.711	0.656					0.635	0.798	0.762	0.545	0.891
LK-2	0.994	1.15			1.09	0.242	0.299	0.255	0.447					0.574	0.878	0.525	0.686	0.869
NCI-H1395	0.945	0.922	0.945	0.871	0.818	0.41	0.445	0.357	0.465					0.947	0.864	0.935	0.705	0.818
A549	0.92	1.08	0.886	0.843	0.845													
NCI-H2170	0.987	1.01	0.972	0.996	1.07	0.644	0.683	0.731	0.777					0.957	0.982	0.9	0.865	1.11
NCI-H1563	0.989	0.884	0.886	0.892	0.881	0.438	0.497	0.484	0.41	0.972	0.82	0.899	1.06					
ABC-1	1.04	1.28	1.01	0.813	1.08	0.675	0.624	0.496	0.61	0.326	0.355	0.295	0.383					
